{"source": "patent US20250026777A1", "about": "“COCRYSTALS OF NICOTINAMIDE RIBOSIDE SALTS, CRYSTALLINE FORMS, METHODS OF PREPARATION, AND APPLICATIONS THEREOF” (Beiture LLP, priority 2023, published 2025)", "key": {"[1]": {"settings": "NR—Cl crystalline forms, previously identified; cited from earlier work"}, "[2]": {"experiment": "Hygroscopicity evaluation at about 75% RH (NaCl saturated aqueous solution), visual powder property and polarized light microscopy", "type": "physicochemical", "settings": "for powder property after 1 day / powder property after 7 days / powder property and crystallinity after 30 days: ~75% RH, room temperature (~22° C.); for hygroscopicity compared to NR—Cl crystalline forms: compared to NR—Cl-Form A and NR—Cl-Form B; for powder state for more than one month: environment of 75% RH", "from_the_text": "In addition to the thermal stability, the hygroscopicity, the tendency of a solid substance to absorb moisture from the surrounding atmosphere, is another important physicochemical property that needs to be considered during pharmaceutical development, because, like the heat, the moisture may also damage the drug product at a specific storage condition during the period of the drug shelf life. One of the key disadvantages of the nicotinamide riboside chloride products in the market is its poor hygroscopicity. As reported previously, all the three crystalline forms of the nicotinamide riboside chloride deliquesce at the relative humidity (RH) of 70%-80%. As a result, the nicotinamide riboside chloride requires to store in a dry place to avoid absorbing moisture from the air. […] The hygroscopicity assessment can be achieved by placing compounds in a specified relative humidity environment, e.g., ˜75% RH environment established with the sodium chloride saturated aqueous solution.\nA Kerr SureTight™ container of 8 oz Clear Glass Wide Mouth Mason Jars with Silver Vacuum Seal Lid was used to secure the closure. An 8 ml opened vial containing sodium chloride (NaCl) saturated aqueous solution (about 75.5% RH at 20° C. and about 75.3% at 25° C. from www.engineeringtoolbox.com/salt-humidity-d_1887.html) was placed in the SureTight container. The 4 ml of opened vials containing about 5 mg of [NR—Cl]2[RSV] cocrystals or NR—Cl crystalline forms were also placed in the same container with the vial of the NaCl saturated aqueous solution. The container was sealed with the seal lid and placed in a room temperature condition (˜22° C.). The powder property was visually observed directly or during shaking the vial. Crystallinity was assessed under a polarized light microscope."}, "[3]": {"experiment": "Chemical decomposition in alcohol suspension", "type": "physicochemical", "from_the_text": "Reaction crystallization temperatures and times depend upon targeted crystalline form of the cocrystal of a salt that is to be crystallized, the concentration of the salt and coformer in solution, and the solvent system. It should be noted that the elevated temperature or the long reaction time should be avoided to reduce the possibility of chemical decomposition for the […]. […] Even in room temperature, the nicotinamide riboside chloride starts to decompose after stirring in the alcohol suspension for more than 3 days. The preferred reaction time is less than 24 hours with reaction temperature at around room temperature."}, "[4]": {"type": "physicochemical", "from_the_text": "Various solvents are selected based on solubility of starting materials and crystallization methods disclosed herein. […] These differences in solubilities also impact the ratio of the two starting materials. In the disclosed methods to prepare […], a ratio between the nicotinamide riboside chloride salt and resveratrol cofomer from about 2:1 to about 2:2 to prepare [NR—Cl]2[RSV] with a NR—Cl/RSV molar ratio of 2:1."}, "[5]": {"experiment": "Thermal stability by differential scanning calorimetry (DSC)", "type": "physicochemical", "settings": "for heat of fusion: DSC; for melting/decomposition endotherm peak: heating rate 10° C./minute", "from_the_text": "Thermal stability is the stability of a molecule at elevated temperatures, and a molecule with more thermal stability has more resistance to decomposition at elevated temperatures. Thermal stability of a compound is one of the most important pharmaceutical properties that requires to be considered during developing a pharmaceutical or nutraceutical product. […] Differential Scanning calorimetry (DSC) is an analysis technique by measuring the heat change associated with the molecule's thermal events when heated at a constant rate. The temperature and its enthalpy change (usually the heat of fusion) at a specific thermal event recorded from DSC technique could be used to evaluate the thermal stability of an organic molecule directly. […] It is desirable to identify a new crystalline form with a higher melting/decomposition temperature and/or a larger heat of fusion to improve the thermal stability of the nicotinamide riboside drug substance.\nDSC analysis was performed on samples prepared according to standard methods using a Q SERIES™ Q2500 DSC calorimeter available from TA INSTRUMENTS® (New Castle, Delaware). A sample (approximately 2 mg) was weighed into an aluminum sample pan and transferred to the DSC. The instrument was purged with nitrogen at 50 mL/min and data collected between 22° C. and 300° C., using a dynamic heating rate of 10° C./minute. Thermal data was analyzed using standard software, e.g., TRIOS from TA INSTRUMENTS®."}}, "note": "“Also recorded” adds a separate entry of the source. Where two headings read alike, the source gives them in different places.", "data": [{"compound": "NC(=O)c1ccc[n+]([C@@H]2O[C@H](CO)[C@@H](O)[C@H]2O)c1.[Cl-]", "note": "[NR—Cl-Form A, nicotinamide riboside chloride]", "values": [{"measurement": "heat of fusion", "setting": "[1]", "result": 58, "unit": "J/g"}, {"measurement": "melting/decomposing temperature", "setting": "[1]", "result": 119, "unit": "°C"}, {"measurement": "powder property after 1 day", "setting": "[2]", "result": "deliquesced; also recorded: became sticky and could not flow freely"}, {"measurement": "powder property after 7 days", "setting": "[2]", "result": "deliquesced"}, {"measurement": "powder property and crystallinity after 30 days", "setting": "[2]", "result": "glass-like liquids (amorphous materials)"}]}, {"compound": "NC(=O)c1ccc[n+]([C@@H]2O[C@H](CO)[C@@H](O)[C@H]2O)c1.[Cl-]", "note": "[NR—Cl-Form B, nicotinamide riboside chloride]", "values": [{"measurement": "heat of fusion", "setting": "[1]", "result": 69, "unit": "J/g"}, {"measurement": "melting/decomposing temperature", "setting": "[1]", "result": 123, "unit": "°C"}, {"measurement": "powder property and crystallinity after 30 days", "setting": "[2]", "result": "glass-like liquids (amorphous materials)"}]}, {"compound": "NC(=O)c1ccc[n+]([C@@H]2O[C@H](CO)[C@@H](O)[C@H]2O)c1.[Cl-]", "note": "[nicotinamide riboside chloride]", "values": [{"measurement": "time within which decomposition occurs in alcohol suspension", "setting": "[3]; elevated temperature above 50° C.", "result": "≤ 1", "unit": "h"}, {"measurement": "stirring time after which decomposition starts in alcohol suspension", "setting": "[3]; room temperature", "result": "more than 3 days"}, {"measurement": "solubility in EtOH", "setting": "[4]", "result": "poorly soluble"}, {"measurement": "solubility in IPA", "setting": "[4]", "result": "poorly soluble"}, {"measurement": "solubility in MeOH", "setting": "[4]", "result": "soluble"}, {"measurement": "solubility in water", "setting": "[4]", "result": "soluble"}]}, {"compound": "Oc1ccc(/C=C/c2cc(O)cc(O)c2)cc1", "note": "[resveratrol, 3,5,4′-trihydroxy-trans-stilbene]", "values": [{"measurement": "solubility in EtOH", "setting": "[4]", "result": "soluble"}, {"measurement": "solubility in IPA", "setting": "[4]", "result": "soluble"}, {"measurement": "solubility in MeOH", "setting": "[4]", "result": "soluble"}, {"measurement": "solubility in water", "setting": "[4]", "result": "poorly soluble"}]}, {"compound": "resveratrol cocrystal of nicotinamide riboside chloride [[NR—Cl]2[RSV]-Form A]", "values": [{"measurement": "hygroscopicity compared to NR—Cl crystalline forms", "setting": "[2]", "result": "better hygroscopicity"}, {"measurement": "powder state for more than one month", "setting": "[2]", "result": "retain as flowable crystalline powders"}, {"measurement": "powder property after 1 day", "setting": "[2]", "result": "flowable powders"}, {"measurement": "powder property after 7 days", "setting": "[2]", "result": "flowable powders"}, {"measurement": "powder property and crystallinity after 30 days", "setting": "[2]", "result": "flowable crystalline powders"}, {"measurement": "heat of fusion", "setting": "[5]", "result": 100, "unit": "J/g"}, {"measurement": "thermal stability compared to NR—Cl crystalline forms", "setting": "[5]; from melting/decomposition temperature and heat of fusion", "result": "better thermal stability"}, {"measurement": "melting/decomposition endotherm peak", "setting": "[5]", "result": "about 128 °C"}]}, {"compound": "resveratrol cocrystal of nicotinamide riboside chloride [[NR—Cl]2[RSV]-Form B]", "values": [{"measurement": "hygroscopicity compared to NR—Cl crystalline forms", "setting": "[2]", "result": "better hygroscopicity"}, {"measurement": "powder state for more than one month", "setting": "[2]", "result": "retain as flowable crystalline powders"}, {"measurement": "powder property after 1 day", "setting": "[2]", "result": "flowable powders"}, {"measurement": "powder property after 7 days", "setting": "[2]", "result": "flowable powders"}, {"measurement": "powder property and crystallinity after 30 days", "setting": "[2]", "result": "flowable crystalline powders"}, {"measurement": "heat of fusion", "setting": "[5]", "result": 97, "unit": "J/g"}, {"measurement": "melting/decomposition endotherm peak", "setting": "[5]", "result": "about 127 °C"}]}]}
